According to patent publication US10051861B2, “N-arylamidine-substituted trifluoroethyl sulfide derivatives as acaricides and insecticides” (BAYER CROPSCIENCE AG, priority 2011, dated 2018):
Where two headings read alike, the source gives them in different places. Marks after values point to notes of the source that are not given here. Each block holds one compound with its values, some of them ahead of it.

Key:
[1] = tested on: greenhouse red spider mite (Tetranychus urticae); test: Tetranychus test, OP-resistant (TETRUR spray treatment); type: in vivo; settings: application rate 500 g/ha, after 6 days
Description: (§1) After 6 days, the effect in % is determined.

[2] = logP by HPLC on reversed-phase columns (C 18), EEC Directive 79/831 Annex V.A8; type: physicochemical; settings: for logP(HCOOH): pH 2.7; for logP(neutral): pH 7.8; for chromatographic logP: reversed-phase C18 HPLC column
Description: Calibration is carried out using unbranched alkan-2-ones (having from 3 to 16 carbon atoms) with known log P values (the log P values are determined by the retention times using linear interpolation between two successive alkanones).

Meloidogyne incognita = Meloidogyne incognita test (MELGIN); type: in vivo; settings: application rate 20 ppm, after 14 days
Description: Solvents: 80.0 parts by weight of acetone
Containers are filled with sand, solution of active compound, Meloidogyne incognita egg/larvae suspension and lettuce seeds. The lettuce seeds germinate and the plants develop. On the roots, galls are formed.
After 14 days, the nematicidal efficacy in % is determined by the formation of galls. 100% means that no galls have been found; 0% means that the number of galls on the treated plants corresponds to the untreated control.

[3] = tested on: greenhouse red spider mite (Tetranychus urticae); test: Tetranychus urticae spray test, OP-resistant (TETRUR), bean leaf disks; type: in vivo; settings: for pest or weed control at 500 g/ha: Tetranychus urticae, foliar, 144 h, read-out: efficacy (spider mites killed)
Description: as §1

[4] = tested on: L1 larvae of the Australian sheep blowfly (Lucilia cuprina); test: Lucilia cuprina test (LUCICU); type: in vivo; settings: application rate 100 ppm, after 2 days
Description: (§2) Solvent: dimethyl sulfoxide
About 20 L1 larvae of the Australian sheep blowfly (Lucilia cuprina) are transferred into a test vessel containing minced horsemeat and the active compound preparation of the desired concentration.
After 2 days, the kill in % is determined.

[5] = tested on: larvae of the mustard beetle (Phaedon cochleariae); test: Phaedon cochleariae spray test (PHAECO); settings: for effect (beetle larvae killed): application rate 500 g/ha, after 7 days; for pest or weed control at 500 g/ha: Phaedon cochleariae, 168 h, read-out: effect (beetle larvae killed)
[6] = tested on: cattle ticks (Boophilus microplus); test: Boophilus microplus injection test (BOOPMI Inj); type: in vivo; settings: for pest or weed control at 0.02 mg: Rhipicephalus microplus, 168 h, read-out: efficacy (laying of fertile eggs)
Description: as §2
1 μl of the active compound solution is injected into the abdomen of 5 engorged adult female cattle ticks (Boophilus microplus). The animals are transferred into dishes and kept in a climate-controlled room.
(§3) The activity is assessed after 7 days by laying of fertile eggs. Eggs whose fertility is not visible from the outside are stored in a climate-controlled cabinet until the larvae hatch after about 42 days. An efficacy of 100% means that none of the ticks has laid any fertile eggs; 0% means that all eggs are fertile.

[7] = tested on: larvae of the mustard beetle (Phaedon cochleariae); test: Phaedon test (PHAECO spray treatment); settings: application rate 500 g/ha, after 7 days
Boophilus microplus = Boophilus microplus test (BOOPMI injection); type: in vivo; parameters: dose or concentration left out as unconfirmed; settings: after 7 days
Description: as §2
The solution of active compound is injected into the abdomen (Boophilus microplus), and the animals are transferred into dishes and kept in a climatized room. The activity is assessed by laying of fertile eggs.
100% means that none of the ticks has laid any fertile eggs.

Lucilia cuprina larvae = test: Lucilia cuprina (48 h); type: in vivo; settings: application rate 100 ppm, after 48 hours
Description: as §2
10 mg of active compound are dissolved in 0.5 ml of dimethyl sulfoxide. To prepare a suitable formulation, the active compound solution is diluted with water to the concentration desired in each case. About 20 Lucilia cuprina larvae are introduced into a test tube which contains about 1 cm^3 of horse meat and 0.5 ml of the preparation of active compound to be tested. After 48 hours, the efficacy of the active compound preparation is determined as % larvae mortality.

[8] = tested on: green peach aphid (Myzus persicae); test: Myzus persicae spray test (MYZUPE); type: in vivo; settings: after 6 days
Description: as §1

[9] = tested on: cattle ticks (Boophilus microplus) Parkhurst strain, SP-resistant; test: Boophilus microplus dip test (BOOPMI Dip); type: in vivo; settings: application rate 100 ppm, after 7 days
Description: Test animals: cattle ticks (Boophilus microplus) Parkhurst strain, SP-resistant
as §2
10 mg of active compound are dissolved in 0.5 ml of dimethyl sulfoxide. To prepare a suitable formulation, the active compound solution is diluted with water to the concentration desired in each case.
This active compound preparation is pipetted into tubes. 8-10 adult engorged female cattle ticks (Boophilus microplus) are transferred into a further tube with holes. The tube is immersed into the active compound formulation, and all ticks are completely wetted. After the liquid has run out, the ticks are transferred on filter disks into plastic dishes and stored in a climate-controlled room.
as §3

[10] = tested on: nematode larvae (Cooperia curticei); test: Cooperia curticei test (COOPCU); type: in vivo; settings: application rate 100 ppm, after 5 days
Description: as §2
Vessels containing the active compound preparation of the desired concentration are populated with about 40 nematode larvae (Cooperia curticei).
After 5 days, the kill in % is determined.

[11] = tested on: greenhouse red spider mite (Tetranychus urticae); test: Tetranychus urticae spray test, OP-resistant (TETRUR), bean plants; type: in vivo; settings: after 7 days
Description: Solvents: 7 parts by weight of dimethylformamide
Emulsifier: 2 part by weight of alkylaryl polyglycol ether
If the addition of ammonium salts or/and penetrants is required, these are in each case added in a concentration of 1000 ppm to the solution of the preparation.
Bean plants (Phaseolus vulgaris) which are heavily infested by all stages of the greenhouse red spider mite (Tetranychus urticae) are treated by spraying with the active compound preparation of the desired concentration.

[12] = application rate 500 g/ha, after 6 days
[13] = application rate 20 μg/animal, injection, after 7 days

logP(HCOOH) [2]: 3.36 | logP(neutral) [2]: 3.4
Structure (SMILES): Cc1cc(C)c(SCC(F)(F)F)cc1N=C(N)C(F)(F)F [Ia-07]
efficacy (spider mites killed) [1]: 100% | nematicidal efficacy (formation of galls) (Meloidogyne incognita): 90% | efficacy (spider mites killed) [3, 12]: 100%

logP(HCOOH) [2]: 3.7 | logP(neutral) [2]: 3.71
Structure (SMILES): CNC(=Nc1cc(SCC(F)(F)F)c(C)cc1F)C(F)(F)F [Ia-13]
efficacy (kill of larvae) [4]: 90% | efficacy (spider mites killed) [1]: 100% | effect (beetle larvae killed) [5]: 100% | efficacy (laying of fertile eggs) [6, 13]: 100% | efficacy (beetle larvae killed) [7]: 100% | efficacy (spider mites killed) [3, 12]: 100%

Structure (SMILES): Cc1cc(F)c(N=C(N)C(F)(F)F)cc1SCC(F)(F)F [Ia-21]
efficacy (kill of larvae) [4]: 100% | efficacy (laying of fertile eggs) [6, 13]: 100% | efficacy (laying of fertile eggs) (Boophilus microplus): 100% | logP(neutral) [2]: 3.12^[b] | effect (% larvae mortality) (Lucilia cuprina larvae): 100% | efficacy (spider mites killed) [3, 12]: 100%

Structure (SMILES): Cc1cc(C)c(SCC(F)(F)F)cc1/N=C(\N)C1(Cl)CC1 [Ia-34]
effect (aphids killed) ([8]; application rate 500 g/ha): 90% | pest or weed control at 0.02 mg [6, 13]: 100% | pest or weed control at 500 g/ha [3, 12]: 100%

Structure (SMILES): Cc1cc(F)c(/N=C(/N)c2ccc(F)cc2)cc1SCC(F)(F)F [Ia-116]
effect (aphids killed) ([8]; application rate 500 g/ha): 90% | pest or weed control at 0.02 mg [6, 13]: 100% | pest or weed control at 500 g/ha [3, 12]: 100%

Structure (SMILES): Cc1cc(F)c(/N=C2\CCCN2CC(F)(F)F)cc1SCC(F)(F)F [Ia-189, 2-fluoro-4-methyl-N-[1-(2,2,2-trifluoroethyl)pyrrolidin-2-ylidene]-5-[(2,2,2-trifluoroethyl)sulfanyl]aniline]
efficacy (laying of fertile eggs) [9]: 100% | pest or weed control at 0.02 mg [6]: 100% | chromatographic logP ([2]; pH 2.7, [a] LC-MS, acidic range, pH 2.7, 0.1% aqueous formic acid/acetonitrile, read-out: logP(HCOOH)): 2.32 | chromatographic logP ([2]; pH 7.8, [b] LC-MS, neutral range, pH 7.8, 0.001 molar aqueous ammonium bicarbonate/acetonitrile, read-out: logP(neutral)): 4.37 | pest or weed control at 500 g/ha [3]: 100%

Structure (SMILES): Cc1cc(F)c(/N=C(\NC(C)C(F)(F)F)C2CC2)cc1SCC(F)(F)F (stereo not drawn) [Ia-206]
effect (aphids killed) ([8]; application rate 500 g/ha): 100% | pest or weed control at 0.02 mg [6, 13]: 100% | pest or weed control at 500 g/ha [3, 12]: 100%

Structure (SMILES): CCN/C(=N\c1cc(SCC(F)(F)F)c(Cl)cc1Cl)c1cccnc1 [Ia-220]
efficacy (kill of larvae) [10]: 100% | pest or weed control at 500 g/ha [3, 12]: 90%

Structure (SMILES): Cc1cc(F)c(/N=C(\NCC2CCCC(C(F)(F)F)C2)C2CC2)cc1SCC(F)(F)F (stereo not drawn) [Ia-228]
effect (aphids killed) ([8]; application rate 500 g/ha): 100% | pest or weed control at 500 g/ha [3, 12]: 90%

Structure (SMILES): CCNC(=Nc1cc([S+]([O-])CC(F)(F)F)c(C)cc1F)C(F)(F)F (stereo not drawn) [Ib-02]
efficacy (kill of larvae) [4]: 80% | efficacy (spider mites killed) [1]: 100% | effect (beetle larvae killed) [5]: 100% | efficacy (laying of fertile eggs) [6, 13]: 100% | efficacy (beetle larvae killed) [7]: 100% | nematicidal efficacy (formation of galls) (Meloidogyne incognita): 100% | efficacy (spider mites killed) [3, 12]: 100%

Structure (SMILES): Cc1cc(F)c(/N=C(/N)C(F)(F)F)cc1[S+]([O-])CC(F)(F)F (stereo not drawn) [Ib-11]
efficacy (kill of larvae) [4]: 100% | effect (beetle larvae killed) [5]: 100% | efficacy (laying of fertile eggs) [6, 13]: 100% | efficacy (laying of fertile eggs) (Boophilus microplus): 100% | logP(HCOOH) [2]: 2.77 | logP(neutral) [2]: 2.71 | effect (% larvae mortality) (Lucilia cuprina larvae): 100% | efficacy (beetle larvae killed) [7]: 100% | efficacy (spider mites killed) [3, 12]: 100%

logP(HCOOH) [2]: 2.05 | logP(neutral) [2]: 2.02
Structure (SMILES): N/C(=N/c1cc([S+]([O-])CC(F)(F)F)c(Cl)cc1Cl)C(F)(F)F (stereo not drawn) [Ib-14]
effect (beetle larvae killed) [5]: 100% | efficacy (laying of fertile eggs) [6, 13]: 100% | efficacy (laying of fertile eggs) (Boophilus microplus): 100% | efficacy (beetle larvae killed) [7]: 100% | efficacy (spider mites killed) [3, 12]: 100%

logP(HCOOH) [2]: 2.2 | logP(neutral) [2]: 2.19
Structure (SMILES): N/C(=N/c1ccc(C(F)(F)F)c([S+]([O-])CC(F)(F)F)c1)C(F)(F)F (stereo not drawn) [Ib-16]
effect (beetle larvae killed) [5]: 100% | efficacy (laying of fertile eggs) [6, 13]: 100% | efficacy (laying of fertile eggs) (Boophilus microplus): 100% | efficacy (beetle larvae killed) [7]: 100% | efficacy (spider mites killed) [3, 12]: 100%

Structure (SMILES): Cc1cc(F)c(/N=C2\CCCN2CC(F)F)cc1[S+]([O-])CC(F)(F)F (stereo not drawn) [Ib-33]
efficacy (laying of fertile eggs) [9]: 100% | pest or weed control at 0.02 mg [6, 13]: 100% | pest or weed control at 500 g/ha [3, 12]: 100%

Structure (SMILES): Cc1cc(F)c(/N=C(\N)C(F)(F)C(F)(F)F)cc1[S+]([O-])CC(F)(F)F (stereo not drawn) [Ib-42]
effect (aphids killed) ([8]; application rate 100 g/ha): 80% | pest or weed control at 500 g/ha [3, 12]: 100%

Structure (SMILES): N/C(=N/c1cc([S@@+]([O-])CC(F)(F)F)c(Cl)cc1Cl)C(F)(F)F [Ib-44]
efficacy (spider mites killed) ([11]; application rate 100 ppm): 90% | effect (aphids killed) ([8]; application rate 500 g/ha): 100% | pest or weed control at 500 g/ha [5]: 100% | pest or weed control at 0.02 mg [6, 13]: 90%

Structure (SMILES): Cc1cc(F)c(/N=C2\CCCN2CC(F)(F)F)cc1[S+]([O-])CC(F)(F)F (stereo not drawn) [Ib-115, 2-Fluoro-4-methyl-N-[1-(2,2,2-trifluoroethyl)pyrrolidin-2-ylidene]-5-[(2,2,2-trifluoroethyl)sulfinyl]aniline]
efficacy (laying of fertile eggs) [9]: 100% | pest or weed control at 500 g/ha [5]: 100% | pest or weed control at 0.02 mg [6]: 100% | pest or weed control at 500 g/ha [3]: 100%

Structure (SMILES): CN(C)/C(=N\c1cc([S+]([O-])CC(F)(F)F)c(Cl)cc1Cl)c1cccnc1 (stereo not drawn) [Ib-123]
effect (aphids killed) ([8]; application rate 500 g/ha): 90% | pest or weed control at 500 g/ha [3, 12]: 100%

Structure (SMILES): Cc1cc(C)c([S+]([O-])CC(F)(F)F)cc1/N=C1\SCC(=O)N1C (stereo not drawn) [Ib-159]
efficacy (spider mites killed) ([11]; application rate 20 ppm): 80%

Structure (SMILES): Cc1cc(F)c(/N=C2\SCC(=O)N2CC(F)(F)F)cc1[S@+]([O-])CC(F)(F)F [Ib-168]
efficacy (spider mites killed) ([11]; application rate 20 ppm): 100%
